The values below come from patent US20240279214A1, “ALPHA4 BETA7 INEGRIN ANTAGONISTS AND USES THEREOF” (XinThera, Inc., priority 2022, published 2024).

For data set [1] the following is noted: ether bond, 13-membered ring, 100.0 °C.
The conditions of data set [2]: ether bond, 13-membered ring, 100.0 °C. The source holds these as a separate data set.

Read-outs that look alike come from different tables or passages of the source.

In data set [1] (from CCOC(=O)C[C@H](NC(=O)C(c1cccc(Br)c1)n1cc(CCN2CC(F)C2)c(C(F)(F)F)cc1=O)c1cc(-c2c(C)cc(C3CC3)cc2O)cc(C(F)(F)F)c1F, CuI/(1R,2R)-N1,N2-dimethylcyclohexane-1,2-diamine/K2CO3, dioxane, 40.0 mM, 16.0 h), `CCOC(=O)C[C@@H]1NC(=O)C(n2cc(CCN3CC(F)C3)c(C(F)(F)F)cc2=O)c2cccc(c2)Oc2cc(C3CC3)cc(C)c2-c2cc1c(F)c(C(F)(F)F)c2` (some centres unmarked) yielded a ring closure, yield after HPLC of 31.4%. `CCOC(=O)C[C@@H]1NC(=O)C(n2cc(CCN3CC(F)C3)c(C(F)(F)F)cc2=O)c2cccc(c2)Oc2cc(Cl)cc(C)c2-c2cc1c(F)c(C(F)(F)F)c2` (some centres unmarked) registered a ring closure, yield after HPLC in data set [1] (from CCOC(=O)C[C@H](NC(=O)C(c1cccc(Br)c1)n1cc(CCN2CC(F)C2)c(C(F)(F)F)cc1=O)c1cc(-c2c(C)cc(Cl)cc2O)cc(C(F)(F)F)c1F, CuI/(1R,2R)-N1,N2-dimethylcyclohexane-1,2-diamine/K2CO3, dioxane, 34.0 mM, 4.0 h) of 33%. As for `CCOC(=O)C[C@@H]1NC(=O)C(n2ccc3occc3c2=O)c2cc(ccc2F)Oc2cccc(C)c2-c2cc(C)c(F)c1c2` (some centres unmarked), the ring closure, yield after HPLC in data set [1] (from CCOC(=O)C[C@H](NC(=O)C(c1cc(Br)ccc1F)n1ccc2occc2c1=O)c1cc(-c2c(C)cccc2O)cc(C)c1F, CuI/(1S,2S)-N,N'-dimethylcyclohexane-1,2-diamine/K2CO3, dioxane, 30.0 mM, 4.0 h) turned out to be 36.3%. As for `CCOC(=O)C[C@@H]1NC(=O)C(n2cccc(-c3ccccc3)c2=O)c2cc(ccc2F)Oc2cccc(C)c2-c2cc(C)c(F)c1c2` (some centres unmarked), the ring closure, yield after HPLC in data set [1] (from CCOC(=O)C[C@H](NC(=O)C(c1cc(Br)ccc1F)n1cccc(-c2ccccc2)c1=O)c1cc(-c2c(C)cccc2O)cc(C)c1F, CuI/(1R,2R)-N,N'-dimethylcyclohexane-1,2-diamine/K2CO3, dioxane, 70.0 mM, 2.0 h) was 48.2%. In turn, `CCOC(=O)C[C@@H]1NC(=O)C(n2cc(CCN(C)C)c(C(F)(F)F)cc2=O)c2cccc(c2)Oc2cccc(C)c2-c2cc(C)c(F)c1c2` (stereo in doubt) returned a ring closure, isolated yield in data set [2] (from CCOC(=O)C[C@H](NC(=O)C(c1cccc(Br)c1)n1cc(CCN(C)C)c(C(F)(F)F)cc1=O)c1cc(-c2c(C)cccc2O)cc(C)c1F, CuI/K2CO3/(1R,2R)-N1,N2-dimethylcyclohexane-1,2-diamine, 1,4-dioxane, 66.7 mM, 16.0 h) of 61.3%. In data set [2] (from CCOC(=O)C[C@H](NC(=O)C(c1cccc(Br)c1)n1cc(CCN(C)C)c(C(F)(F)F)cc1=O)c1cc(-c2c(C)cccc2O)cc(C(F)(F)F)c1F, CuI/(1R,2R)-N1,N2-dimethylcyclohexane-1,2-diamine/K2CO3, dioxane, 68.3 mM, 16.0 h), `CCOC(=O)C[C@@H]1NC(=O)C(n2cc(CCN(C)C)c(C(F)(F)F)cc2=O)c2cccc(c2)Oc2cccc(C)c2-c2cc1c(F)c(C(F)(F)F)c2` (stereo in doubt) came in with a ring closure, isolated yield of 55.5%. Consider `CCOC(=O)C[C@@H]1NC(=O)C(n2cc(CCN3CC(F)C3)c(C(F)(F)F)cc2=O)c2cccc(c2)Oc2cccc(C)c2-c2cc(C)c(F)c1c2` (stereo in doubt), for which the ring closure, isolated yield in data set [2] (from CCOC(=O)C[C@H](NC(=O)C(c1cccc(Br)c1)n1cc(CCN2CC(F)C2)c(C(F)(F)F)cc1=O)c1cc(-c2c(C)cccc2O)cc(C)c1F, CuI/K2CO3, dioxane, 42.0 mM, 16.0 h) is 33.4%. For the compound `CCOC(=O)C[C@@H]1NC(=O)C(n2ccc3ccoc3c2=O)c2cc(ccc2F)Oc2cccc(C)c2-c2cc(C)c(F)c1c2` (stereo in doubt), the ring closure, yield after HPLC in data set [1] (from CCOC(=O)C[C@H](NC(=O)C(c1cc(Br)ccc1F)n1ccc2ccoc2c1=O)c1cc(-c2c(C)cccc2O)cc(C)c1F, CuI/(1R,2R)-N,N'-dimethylcyclohexane-1,2-diamine/K2CO3, 1,4-dioxane, 37.5 mM, 4.0 h) was 50.9%.

In data set [2] (CuI/K2CO3/(1R,2R)-N1,N2-dimethylcyclohexane-1,2-diamine, 1,4-dioxane, 52.0 mM), “ethyl 2-((5S,8S)-1^4,4^4-difluoro-5-(5-(2-(3-fluoroazetidin-1-yl)ethyl)-2-oxo-4-(trifluoromethyl)pyridin-1(2H)-yl)-2^6-methyl-6-oxo-3-oxa-7-aza-1,4(1,3),2(1,2)-tribenzenacyclooctaphane-8-yl)acetate” yielded a ring closure, isolated yield of 74.2%.

For “ethyl 2-[(14S,17S)-14-{5-[3-(azetidin-1-yl) propyl]-2-oxo-4-(trifluoromethyl) pyridin-1-yl}-12,19-difluoro-3,20-dimethyl-15-oxo-8-oxa-16-azatetracyclo [16.3.1.1^{9,13}.0^{2,7}] tricosa-1(22),2(7),3,5,9,11,13(23),18,20-nonaen-17-yl] acetate”, the ring closure, isolated yield in data set [2] (CuI/K2CO3/(1R,2R)-N1,N2-dimethylcyclohexane-1,2-diamine, 1,4-dioxane, 46.7 mM) amounted to 62.8%. In data set [2] (CuI/K2CO3/(1R,2R)-N1,N2-dimethylcyclohexane-1,2-diamine, 1,4-dioxane, 33.3 mM), “ethyl 2-[(14S,17S)-20-cyclopropyl-12,19-difluoro-3-methyl-15-oxo-14-[2-oxo-4-(trifluoromethyl) pyridin-1-yl]-8-oxa-16-azatetracyclo [16.3.1.1^{9,13}.0^{2,7}]tricosa-1(22),2(7),3,5,9,11,13(23),18,20-nonaen-17-yl]acetate” registered a ring closure, isolated yield of 56.2%.
